Measured values published in patent publication US10689378B2, “Triazolopyridine compounds and uses thereof” (Novartis AG, priority 2016, dated 2020).
Where two headings read alike, the source gives them in different places.

Tests used:
[1] = target: T1, EED (1-441)-His protein (Homo sapiens, UniProt O75530); experiment: EED-H3K27Me3 peptide competition binding assay by AlphaScreen
T1 construct: 30 nM EED (1-441)-His protein
Summary of the method: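 Serially diluted compound (12 points, 3-fold) incubated 20 min with 30 nM EED(1-441)-His and 15 nM biotin-H3K27Me3(19-33) peptide in 25 mM HEPES pH 8, 0.02% Tween-20, 0.5% BSA. Ni-chelate acceptor/streptavidin donor beads (10 μg/mL each) added, 1 h rt dark; 615 nm emission normalized to controls, dose-response fit for IC50.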

[2] = system: H3K27 methylation in G401 cell; experiment: ELISA (H3K27 methylation) assay in G401 cells; type: cell-based, human; settings: Homo sapiens
Summary of the method: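 IC50 from dose-response fit of percent inhibition relative to DMSO, using H3K27me3/me2 ELISA signal (ECL) normalized to histone H3. Histones HCl-extracted after 48 h compound exposure of G401 cells at up to 20 μM, 8- or 12-point 3-fold series.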

[3] = target: wild type PRC2 (wtPRC2) complex (Homo sapiens, UniProt O75530); experiment: EED LC-MS assay (SAH production by PRC2); type: biochemical
wild type PRC2 (wtPRC2) complex, sequence (O75530 whole entry): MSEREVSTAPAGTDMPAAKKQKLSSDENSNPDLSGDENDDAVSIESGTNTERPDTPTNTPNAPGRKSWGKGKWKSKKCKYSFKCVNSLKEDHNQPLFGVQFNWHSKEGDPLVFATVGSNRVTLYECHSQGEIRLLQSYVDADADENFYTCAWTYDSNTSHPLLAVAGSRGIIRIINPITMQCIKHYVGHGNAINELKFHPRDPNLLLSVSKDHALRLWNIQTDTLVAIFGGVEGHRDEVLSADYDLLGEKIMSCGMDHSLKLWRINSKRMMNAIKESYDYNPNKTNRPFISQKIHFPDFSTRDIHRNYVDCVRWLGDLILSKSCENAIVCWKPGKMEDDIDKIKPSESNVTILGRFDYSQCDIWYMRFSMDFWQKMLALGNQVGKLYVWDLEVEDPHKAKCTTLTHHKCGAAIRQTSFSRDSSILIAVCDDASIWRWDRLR
wild type PRC2 (wtPRC2) complex, sequence (Q15910 whole entry partner): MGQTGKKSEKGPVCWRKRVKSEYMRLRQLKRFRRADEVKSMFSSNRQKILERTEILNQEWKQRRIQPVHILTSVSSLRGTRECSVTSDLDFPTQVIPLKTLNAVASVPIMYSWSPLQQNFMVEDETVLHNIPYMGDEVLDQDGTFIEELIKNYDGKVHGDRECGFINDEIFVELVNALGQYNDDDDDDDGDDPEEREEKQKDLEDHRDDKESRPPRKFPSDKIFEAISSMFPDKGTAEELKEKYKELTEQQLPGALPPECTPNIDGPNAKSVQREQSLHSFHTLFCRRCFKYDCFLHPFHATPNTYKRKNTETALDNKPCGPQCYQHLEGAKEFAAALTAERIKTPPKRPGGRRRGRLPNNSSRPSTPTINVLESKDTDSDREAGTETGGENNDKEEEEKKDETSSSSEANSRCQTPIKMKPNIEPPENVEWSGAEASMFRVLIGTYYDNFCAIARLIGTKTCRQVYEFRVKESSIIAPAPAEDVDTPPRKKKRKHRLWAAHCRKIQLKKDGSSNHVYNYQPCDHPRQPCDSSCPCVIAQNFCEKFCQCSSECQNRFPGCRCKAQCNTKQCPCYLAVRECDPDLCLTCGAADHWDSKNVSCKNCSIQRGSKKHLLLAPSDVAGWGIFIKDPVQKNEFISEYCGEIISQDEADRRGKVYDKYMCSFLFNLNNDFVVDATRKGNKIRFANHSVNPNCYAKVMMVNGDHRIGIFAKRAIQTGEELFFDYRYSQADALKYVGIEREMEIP
wild type PRC2 (wtPRC2) complex, sequence (Q15022 whole entry partner): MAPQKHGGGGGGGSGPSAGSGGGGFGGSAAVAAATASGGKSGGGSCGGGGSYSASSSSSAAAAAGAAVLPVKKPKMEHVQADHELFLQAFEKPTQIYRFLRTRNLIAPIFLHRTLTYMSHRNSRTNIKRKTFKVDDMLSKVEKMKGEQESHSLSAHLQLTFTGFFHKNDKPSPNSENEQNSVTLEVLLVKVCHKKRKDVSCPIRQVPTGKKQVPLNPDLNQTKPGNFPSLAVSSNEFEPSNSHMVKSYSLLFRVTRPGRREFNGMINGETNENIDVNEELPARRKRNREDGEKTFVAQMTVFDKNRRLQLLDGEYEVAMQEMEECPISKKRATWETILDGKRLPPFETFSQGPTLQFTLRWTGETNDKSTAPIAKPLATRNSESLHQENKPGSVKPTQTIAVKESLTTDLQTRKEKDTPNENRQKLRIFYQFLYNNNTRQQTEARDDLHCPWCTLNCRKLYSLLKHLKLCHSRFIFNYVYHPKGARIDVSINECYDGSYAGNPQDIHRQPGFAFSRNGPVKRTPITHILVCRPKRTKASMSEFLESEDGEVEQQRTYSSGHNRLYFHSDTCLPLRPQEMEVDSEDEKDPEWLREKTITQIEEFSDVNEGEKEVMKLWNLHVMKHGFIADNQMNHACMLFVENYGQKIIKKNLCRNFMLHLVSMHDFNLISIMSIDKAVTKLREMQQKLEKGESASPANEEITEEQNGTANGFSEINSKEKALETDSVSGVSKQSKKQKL
wild type PRC2 (wtPRC2) complex, sequence (Q09028 whole entry partner): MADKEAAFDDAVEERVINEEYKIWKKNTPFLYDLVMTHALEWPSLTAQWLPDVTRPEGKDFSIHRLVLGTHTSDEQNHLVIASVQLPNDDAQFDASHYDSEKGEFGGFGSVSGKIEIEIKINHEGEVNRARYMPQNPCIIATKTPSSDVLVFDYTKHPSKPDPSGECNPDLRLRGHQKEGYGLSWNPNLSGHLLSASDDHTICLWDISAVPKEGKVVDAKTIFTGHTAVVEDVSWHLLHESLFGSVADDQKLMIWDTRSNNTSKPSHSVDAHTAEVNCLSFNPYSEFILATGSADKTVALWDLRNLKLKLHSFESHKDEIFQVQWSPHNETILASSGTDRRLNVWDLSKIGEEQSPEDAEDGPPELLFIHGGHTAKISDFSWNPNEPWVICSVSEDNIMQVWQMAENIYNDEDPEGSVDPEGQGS
wild type PRC2 (wtPRC2) complex, sequence (Q6ZN18 whole entry partner): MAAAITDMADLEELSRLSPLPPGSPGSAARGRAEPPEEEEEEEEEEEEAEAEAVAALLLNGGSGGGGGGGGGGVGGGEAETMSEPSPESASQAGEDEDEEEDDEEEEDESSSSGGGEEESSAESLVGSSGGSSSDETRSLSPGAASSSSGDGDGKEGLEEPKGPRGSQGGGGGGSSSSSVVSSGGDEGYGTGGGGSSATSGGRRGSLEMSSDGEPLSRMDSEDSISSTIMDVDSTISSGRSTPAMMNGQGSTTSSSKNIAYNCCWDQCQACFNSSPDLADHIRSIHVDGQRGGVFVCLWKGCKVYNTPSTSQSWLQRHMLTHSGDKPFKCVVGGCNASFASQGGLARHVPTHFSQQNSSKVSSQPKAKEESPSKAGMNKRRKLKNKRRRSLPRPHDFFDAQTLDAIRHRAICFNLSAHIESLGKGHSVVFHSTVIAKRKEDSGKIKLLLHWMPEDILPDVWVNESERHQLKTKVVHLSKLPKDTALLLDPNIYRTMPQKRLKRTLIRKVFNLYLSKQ
Protocol: Compounds of the present invention were assessed for their ability to inhibit PRC2 activity in a pentameric complex of EZH2, SUZ12, EED, Rbap48 and AEBP in biochemical assays. The ability of compounds of the present invention to inhibit cellular activity of PRC2 was assessed by analysing histone H3 lysine 27 methylation in human cell lines. The ability of compounds of the present invention to inhibit cancers was derived from their ability to modulate activity in human cancer cell lines bearing specific dependence to PRC2 activity to maintain cancerous growth.
Representative compounds of the present invention were serially and separately diluted 3-fold in DMSO to obtain a total of eight or twelve concentrations. Then the test compounds at each concentration (120 nL of each) were transferred by Mosquito into a 384-well Perkin Elmer ProxiPlate 384 plus plates. Solutions (6 μL) of 24 nM the wild type PRC2 (wtPRC2) complex and 2 μM SAM in reaction buffer (20 mM Tris, pH 8.0, 0.1% BSA, 0.01% Triton, 0.5 mM DTT) were added to the wells that were then incubated with the test compound for 20 min. A 6 μL solution of 3 μM of the peptide substrate H3K27Me0 (histone H3[21-44]-biotin) in reaction buffer was added to initiate each reaction. The final components in the reaction solution include 12 nM wtPRC2 complex, 1 μM SAM, and 1.5 μM H3K27me0 peptide with varying concentration of the compounds. A positive control consisted of the enzyme, 1 μM SAM and 1.5 μM substrate in the absence of the test compound, and a negative control consisted of 1 μM SAM and 1.5 μM substrate only. Each reaction was incubated at rt for 120 min, then stopped by addition of 3 μL per of quench solution (2.5% TFA with 320 nM d4-SAH). The reaction mixture was centrifuged (Eppendorf centrifuge 5810, Rotor A-4-62) for 2 min at 2000 rpm and read on an API 4000 triple quadrupole mass spec with Turbulon Spray (Applied Biosystem) coupled with Prominence UFLC (Shimadzu). The levels of SAH production were then normalized based on the values coming from the positive and negative controls to give percent enzyme activities. The data were then fit to a dose response equation using the program Helios to get the IC50 values of the test compound.

[4] = read-out: (a) IC50, EED Alphascreen binding Qualified
[5] = G-401, read-out: (c) IC50, ELISA Qualified
[6] = read-out: (b) IC50, EED LC-MS Qualified
[7] = EED-H3K27Me3 peptide competition, AlphaScreen, read-out: (a) IC50 EED Alphascreen binding Qualified
[8] = G-401, H3K27 methylation ELISA, read-out: (c) IC50 ELISA Qualified
[9] = PRC2 LC-MS assay, read-out: (b) IC50 EED LC-MS Qualified

T1 sequence (O75530 whole entry): as the sequence (O75530 whole entry) above

IC50 [1, 4] | IC50 [2, 5] | IC50 [3, 6] | IC50 [1, 7] | IC50 [2, 8] | IC50 [3, 9] | SMILES | other results
76.8 nM | 275 nM | 1700 nM | – | – | – | COc1ccccc1CNc1ccc(-c2ccc(C(C)=O)cc2)c2nncn12 [Example 63, 1-(4-(5-((2-methoxybenzyl)amino)-[1,2,4]triazolo[4,3-a]pyridin-8-yl)phenyl) ethanone] | –
– | – | – | 84.5 nM | 318 nM | 254 nM | COc1cccc(Cl)c1CNc1ccc(-c2cccnc2C)c2nncn12 [Example 335, N-(2-chloro-6-methoxybenzyl)-8-(2-methylpyridin-3-yl)-[1,2,4]triazolo[4,3-a] pyridin-5-amine] | –
25.8 nM | 18.6 nM | 67.2 nM | – | – | – | COc1cccc(F)c1CNc1ccc(-c2c(C)nn(CCO)c2C)c2nncn12 [Example 170, 2-(4-(5-((2-fluoro-6-methoxybenzyl)amino)-[1,2,4]triazolo[4,3-a]pyridin-8-yl)-3,5-dimethyl-1H-pyrazol-1-yl)ethanol] | –
– | – | – | 14.6 nM | 8.2 nM | 27.7 nM | COc1cccc(F)c1CNc1ccc(-c2c(C)nn(C(C)C)c2C)c2nncn12 [Example 245, N-(2-fluoro-6-methoxybenzyl)-8-(1-isopropyl-3,5-dimethyl-1H-pyrazol-4-yl)-[1,2,4]triazolo[4,3-a]pyridin-5-amine] | –
– | – | – | 88.8 nM | 118 nM | 348 nM | COc1cccc(F)c1CNc1ccc(-c2ccccc2Cl)c2nncn12 [Example 192, 8-(2-chlorophenyl)-N-(2-fluoro-6-methoxybenzyl)-[1,2,4]triazolo[4,3-a]pyridin-5-amine] | –
– | – | – | 12.9 nM | 9.4 nM | 27.2 nM | COc1cccc(F)c1CNc1ccc(-c2ccncc2C)c2nncn12 [Example 230, N-(2-fluoro-6-methoxybenzyl)-8-(3-methylpyridin-4-yl)-[1,2,4]triazolo[4,3-a] pyridin-5-amine] | –
18.7 nM | 10.1 nM | 11.4 nM | – | – | – | COc1cccc(F)c1CNc1ccc(-n2cc(C)nc2C)c2nncn12 [Example 7, 8-(2,4-Dimethyl-1H-imidazol-1-yl)-N-(2-fluoro-6-methoxybenzyl)-[1,2,4]triazolo[4,3-a]pyridin-5-amine] | –
44.4 nM | 51.5 nM | 266 nM | – | – | – | COc1ccccc1CNc1ccc(-c2cccnc2)c2nncn12 [Example 27, N-(2-methoxybenzyl)-8-(pyridin-3-yl)-[1,2,4] triazolo[4,3-a]pyridin-5-amine] | –
– | – | – | 34.3 nM | 25 nM | 946 nM | CNC(=O)Cc1cncc(-c2ccc(NCc3c(F)cccc3OC)n3cnnc23)c1 [Example 217, 2-(5-(5-((2-fluoro-6-methoxybenzyl)amino)-[1,2,4]triazolo[4,3-a]pyridin-8-yl)pyridin-3-yl)-N-methyl acetamide] | –
– | – | – | 26.9 nM | 15.9 nM | 147 nM | COc1cccc(F)c1CNc1ccc(-c2cnn(C3CCNCC3)c2)c2nncn12 [Example 225, N-(2-fluoro-6-methoxybenzyl)-8-(1-(piperidin-4-yl)-1H-pyrazol-4-yl)-[1,2,4]triazolo[4,3-a]pyridin-5-amine] | –

The remaining lines, values behind:

SMILES | IC50 [1, 4] | IC50 [2, 5] | IC50 [3, 6] | IC50 [1, 7] | IC50 [2, 8] | IC50 [3, 9] | other results
COc1cccc(F)c1CNc1ccc(-c2cnc(C)n2C)c2nncn12 [Example 366, 8-(1,2-dimethyl-1H-imidazol-5-yl)-N-(2-fluoro-6-methoxybenzyl)-[1,2,4]triazolo[4,3-a]pyridin-5-amine] | – | – | – | – | – | – | IC50 ([1]; read-out: (a) IC50 EED Alphascreen binding Qualified): 13.3 nM; IC50 ([2]; G-401, read-out: (c) IC50 ELISA Qualified): 3.4 nM; IC50 ([3]; read-out: (b) IC50 EED LC-MS Qualified): 45.5 nM
COc1cc(C)c(-c2ccc(NCc3c(F)cccc3OC)n3cnnc23)cn1 [Example 308, N-(2-fluoro-6-methoxybenzyl)-8-(6-methoxy-4-methylpyridin-3-yl)-[1,2,4] triazolo[4,3-a]pyridin-5-amine] | – | – | – | 18.6 nM | 17.4 nM | 117 nM | –
COc1ccccc1CNc1ccc(-c2ccc(C)nc2)c2nncn12 [Example 111, N-(2-methoxybenzyl)-8-(6-methylpyridin-3-yl)-[1,2,4] triazolo[4,3-a]pyridin-5-amine] | 76.5 nM | 56.7 nM | 405 nM | – | – | – | –
COc1ncc(-c2ccc(NCc3c(F)cc(F)cc3OC)n3cnnc23)c(C)n1 [Example 323, N-(2,4-difluoro-6-methoxybenzyl)-8-(2-methoxy-4-methylpyrimidin-5-yl)-[1,2,4]triazolo[4,3-a]pyridin-5-amine] | – | – | – | 24.6 nM | 14.3 nM | 31.2 nM | –
COc1cccc(F)c1CNc1ccc(-c2cnn(C3CCOCC3)c2)c2nncn12 [Example 212, N-(2-fluoro-6-methoxybenzyl)-8-(1-(tetrahydro-2H-pyran-4-yl)-1H-pyrazol-4-yl)-[1,2,4]triazolo[4,3-a] pyridin-5-amine] | – | – | – | 18 nM | 22.6 nM | 75.6 nM | –
COc1ccccc1CNc1ccc(-c2ccc(C(C)N3CCCC3)cc2)c2nncn12 (stereo not drawn) [Example 32, N-(2-methoxybenzyl)-8-(4-(1-(pyrrolidin-1-yl)ethyl)phenyl)-[1,2,4] triazolo[4,3-a]pyridin-5-amine] | 17.4 nM | 38 nM | 142 nM | – | – | – | –
COc1cccc(F)c1CNc1ccc(-c2ccnc(F)c2C)c2nncn12 [Example 276, 8-(2-fluoro-3-methylpyridin-4-yl)-N-(2-fluoro-6-methoxybenzyl)-[1,2,4]triazolo[4,3-a] pyridin-5-amine] | – | – | – | 13.9 nM | 8 nM | 50.5 nM | –
COc1cccc(F)c1CNc1ccc(-c2cncc(C(C)(C)O)c2)c2nncn12 [Example 216, 2-(5-(5-((2-fluoro-6-methoxybenzyl)amino)-[1,2,4]triazolo[4,3-a]pyridin-8-yl)pyridin-3-yl)propan-2-ol] | – | – | – | 33 nM | 25.5 nM | 449 nM | –
COc1cccc(F)c1CNc1ccc(-c2ccc(C(=O)N(C)C)cc2F)c2nncn12 [Example 178, 3-fluoro-4-(5-((2-fluoro-6-methoxybenzyl)amino)-[1,2,4]triazolo[4,3-a]pyridin-8-yl)-N,N-dimethyl benzamide] | – | – | – | 6.5 nM | 6.5 nM | 18.8 nM | –
COc1cccc(F)c1CNc1ccc(-c2cncnc2)c2nncn12 [Example 147, N-(2-fluoro-6-methoxybenzyl)-8-(pyrimidin-5-yl)-[1,2,4]triazolo[4,3-a]pyridin-5-amine] | 77.4 nM | 42.5 nM | 60.8 nM | – | – | – | –
COc1cccc(F)c1CNc1ccc(-c2cccnc2C(F)(F)F)c2nncn12 [Example 237, N-(2-fluoro-6-methoxybenzyl)-8-(2-(trifluoromethyl)pyridin-3-yl)-[1,2,4]triazolo[4,3-a] pyridin-5-amine] | – | – | – | 86.9 nM | 116 nM | 116 nM | –
COc1cccc(F)c1CNc1ccc(-c2cnccc2C)c2nncn12 [Example 150, N-(2-fluoro-6-methoxybenzyl)-8-(4-methylpyridin-3-yl)-[1,2,4]triazolo[4,3-a] pyridin-5-amine] | 35.6 nM | 14.2 nM | 94.8 nM | – | – | – | –
COc1cccc(F)c1CNc1ccc(-c2cc(F)c(N)c(F)c2)c2nncn12 [Example 200, 8-(4-amino-3,5-difluorophenyl)-N-(2-fluoro-6-methoxybenzyl)-[1,2,4] triazolo[4,3-a]pyridin-5-amine] | – | – | – | 71.1 nM | 110 nM | 225 nM | –
COc1cccc(F)c1CNc1ccc(-c2cccnc2F)c2nncn12 [Example 166, N-(2-fluoro-6-methoxybenzyl)-8-(2-fluoropyridin-3-yl)-[1,2,4]triazolo[4,3-a]pyridin-5-amine] | 25.2 nM | 33.3 nM | 20.4 nM | – | – | – | –
